Data reported in patent US20100184809A1, “Heterocyclic FXR Binding Compounds” (PHENEX PHARMACEUTICALS AG, priority 2006, published 2010).

Key:
Caco-2 permeability = format: in vitro ADME; conditions: human, apical to basolateral
Method: Caco-2 cells are widely used as an in vitro model for predicting human drug absorption. The Caco-2 cell line is derived from a human colorectal carcinoma, and when cultured, the cells spontaneously differentiate into monolayers of polarised enterocytes. The cells are seeded on Transwell™ plates and form a confluent monolayer over 20 days prior to the experiment. On day 20, the test compound is added to the apical side of the membrane and the transport of the compound across the monolayer is monitored over a 2 hour time period. To study drug efflux, it is also necessary to investigate transport of the compound from the basolateral compartment to the apical compartment. The permeability coefficient (Papp) is calculated from the following equation: […]
Where dQ/dt is the rate of permeation of the drug across the cells, CO is the donor compartment concentration at time zero and A is the area of the cell monolayer.

[1] = Plasma protein binding assay (equilibrium dialysis); format: in vitro ADME; conditions: 37° C., extrapolated fraction unbound
Method: Equilibrium dialysis is used to determine the extent of binding of a compound to plasma proteins. A semi-permeable membrane separates a protein-containing compartment from a protein-free compartment. The system is allowed to equilibrate at 37° C. The test compound present in each compartment is quantified by LC-MS/MS. The extent of binding is reported as a fraction unbound (fu) value which is calculated as fu=1−(PC−PF)/PC. PC=Test compound concentration in protein-containing compartment. PF=Test compound concentration in protein-free compartment. In addition to using whole plasma, the plasma protein binding assay can be performed using two other ratios of plasma (10% or 50% plasma in buffer v/v). The following equations are used to convert from a fraction unbound at 10% or 50% to a fraction unbound at 100%: […]

[2] = Human microsomal stability assay; format: in vitro ADME; conditions: liver microsomes, 0.5 mg microsomal protein/ml, 10 μM compound, 37° C., read-out: Human liver microsome clearance
Method: Compound stability towards human liver microsomes was determined as follows: Human liver microsomal suspension (1 ml) prepared in reaction buffer at a concentration of 0.5 mg microsomal protein/ml was preincubated for 3 min at 37° C. with a NADPH-generating system (10 mM glucose 6-phosphate, 1 mM NADP+, and 1 unit/ml yeast glucose-6-phosphate dehydrogenase). The final compounds concentration is 10 μM. Boiled microsomes (5 min) served as a control. Samples (50 μl) were then taken after 0, 5, 15, 30, 45, 120 min, into 200 μl acetonitrile, centrifuged for 15 min at 8000×g to remove the protein pellet. Samples were analyzed for parent compound by HPLC. Method development: All samples for metabolic stability experiments were analyzed by HPLC. Only parent compounds were analyzed. Data analysis: The percentages of the parent compounds remaining was defined as the ratio of the parent compounds peak area at a specific point and the peak area at the first time point multiplied by 100%. The metabolic stability was evaluated by plotting the natural logarithm of the percentage parent compounds remaining versus time and performing linear regression and finally reported as clearance [μl/min/mg protein] which is reversed proportional to compound stability. Applying this protocol, Microsomal stability of examples and reference compounds was determined. (Table 7)

[3] = Rat microsomal stability assay; format: in vitro ADME; conditions: liver microsomes, 37° C., NADPH, 45 minute, read-out: Rat liver microsome clearance
Method: Compound stability towards rat liver microsomes was determined as follows: The microsomes are incubated with the test compound at 37° C. in the presence of the co-factor, NADPH, which initiates the reaction. The reaction is terminated by the addition of methanol. Following centrifugation, the supernatant is analysed on the LC-MS/MS. The disappearance of test compound is monitored over a 45 minute time period. The In peak area ratio (compound peak area/internal standard peak area) is plotted against time and the gradient of the line determined. Finally, Intrinsic clearance CLint is computed by the following equations: elimination rate konstant (k)=−gradient; t1/2 (min)=0.693/k; V (μl/mg)=volume of incubation (μl)/protein in incubation (mg); CLint (μl/min/mg protein)=V*0.693/t1/2.

[4] = Rat hepatocyte stability assay; format: in vitro ADME; conditions: hepatocytes, 37° C., 60 minute, read-out: Rat hepatocyte clearance
Method: Compound stability towards rat hepatocytes was determined as follows: The hepatocytes are incubated with the test compound at 37° C. Samples are removed at the appropriate time points into methanol to terminate the reaction. Following centrifugation, the supernatant is analysed by LC-MS/MS. The disappearance of test compound is monitored over a 60 minute time period. The In peak area ratio (compound peak area/internal standard peak area) is plotted against time and the gradient of the line determined. Finally, half life t1/2 and Intrinsic clearance CLint is computed by the following equations: elimination rate konstant (k)=−gradient; t1/2 (min)=0.693/k; V (μl/10^6 cells)=volume of incubation (μl)/number of cells (*10^6); CLint (μl/min/10^6cells protein)=V*0.693/t1/2.

[5] = Pharmacokinetic parameters in C57/BLKS/J(mLepr^db/db) mice (plasma concentration after peroral gavage); format: in vivo; conditions: mouse, oral, perorally by gavage 25 mg/kg, male C57/BLKS/J(mLepr^db/db) mice, read-out: mean plasma conc.
Method: Information on the rate and extent of absorption of the test compounds were generated using two distinct animal models, C57/BI/6J and C57/BLKS/J(mLepr^db/db) mice. Compounds were applied perorally by gavage at 10 mg/kg each to male 8 weeks old C57BL/6 mice and plasma concentrations of the test items were determined by LC-MS/MS (Table 11). Alternatively, compounds were applied perorally by gavage at 25 mg/kg each to 16 weeks old male C57/BLKS/J(mLepr^db/db) mice and plasma concentrations of the test items were determined 120 min after gavage by LC-MS/MS (Table 12).
A solution of 20 mg/ml of each test item was produced by diluting them in the vehicle, 30% HPBCD (hydroxypropyl-beta-cyclodextrin) in 20 mM phosphate buffer pH7.0 (v/w). These solutions were stirred overnight at room temperature and heated to 60° C. for 10 minutes, resulting in a full solubilization. The application was performed by administrating the solution perorally to the mice, with an application volume of 10 ml/kg. For each time point five mice were used. Blood samples were obtained by sacrificing animals for each time point followed by cardiac puncture. […] An aliquot of the particle-free supernatant was transferred to 200 μl sampler vials and subsequently subjected to LC MS/MS for quantification.

Compound	Papp A→B at 2 h (Caco-2 permeability)	fraction unbound [1]	microsomal CLint at 10 μM [2]	microsomal CLint [3]	hepatocyte CLint [4]	concentration at 120 min [5]
CC(C)c1onc(-c2c(Cl)cccc2Cl)c1COc1ccc(N(C)C(=O)c2ccc(C(=O)O)cc2)c(C(F)(F)F)n1 [Example 7, N-{6-[3-(2,6-dichloro-phenyl)-5-isopropyl-isoxazol-4-ylmethoxy]-2-trifluoromethyl-pyridin-3-yl}-N-methyl-terephthalamic acid]	32 ×10⁻⁶ cm/s	0.005	14 µL/min/mg	45 µL/min/mg	0.7 µL/min/1e6 cells	
CC(C)c1onc(-c2c(Cl)cccc2Cl)c1COc1ccc(N(C)Cc2ccc(C(=O)O)cc2)c(C(F)(F)F)n1 [Example 28, 4(((6-((3-(2,6-Dichlorophenyl)-5-isopropylisoxazol-4-yl)methoxy)-2-(trifluoromethyl)pyridin-3-yl)(methyl)amino)methyl)benzoic acid]						287 ng/mL
CC(C)c1onc(-c2c(Cl)cccc2Cl)c1COc1ccc(/C=C/c2cccc(C(=O)O)c2)c(Cl)c1 [Compound B, reference compound]			100 µL/min/mg	310 µL/min/mg	45 µL/min/1e6 cells	164 ng/mL
Cc1nc(OCc2c(-c3c(Cl)cccc3Cl)noc2C(C)C)ccc1N(C)S(=O)(=O)c1ccc(C(=O)O)cc1 [Example 4, 4-(N-(6-((3-(2,6-dichlorophenyl)-5-isopropylisoxazol-4-yl)methoxy)-2-methylpyridin-3-yl)—N-methylsulfamoyl)benzoic acid]	30 ×10⁻⁶ cm/s	0.0003	62 µL/min/mg		7.1 µL/min/1e6 cells	
